Test system: 253994-281-T-J1-PDC KRAS-mutant spheroids with HUVEC/MSC, viability
Assay: Anticancer human tumor 253994-281-T-J1-PDC patient-derived colorectal carcinoma cell line growth inhibition [KRAS2]
Conditions: for viability, T/C: stronger effect = lower value
Summary of the method: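 KRAS-mutant tumor cells were grown as spheroids with HUVEC endothelial cells and human MSCs as stroma. Targeted agents were tested alone and with KRAS pathway inhibitors. Doses started at or near clinical Cmax, or 10 microM, descending half-log.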

[1] = curve of first compound, second compound 0.1 µM
[2] = curve of first compound, second compound 0.316 µM
[3] = curve of first compound, second compound 1 µM
[4] = curve of first compound, second compound 3.16 µM
[5] = curve of first compound, second compound 10 µM
[6] = second compound 0.1 µM, first compound 0.0316 µM
[7] = second compound 0.1 µM, first compound 0.1 µM
[8] = second compound 0.1 µM, first compound 0.316 µM
[9] = second compound 0.1 µM, first compound 1 µM
[10] = second compound 0.1 µM, first compound 3.16 µM
[11] = second compound 0.1 µM, first compound 10 µM
[12] = second compound 0.316 µM, first compound 0.0316 µM
[13] = second compound 0.316 µM, first compound 0.1 µM
[14] = second compound 0.316 µM, first compound 0.316 µM
[15] = second compound 0.316 µM, first compound 1 µM
[16] = second compound 0.316 µM, first compound 3.16 µM
[17] = second compound 0.316 µM, first compound 10 µM
[18] = second compound 1 µM, first compound 0.0316 µM
[19] = second compound 1 µM, first compound 0.1 µM
[20] = second compound 1 µM, first compound 0.316 µM
[21] = second compound 1 µM, first compound 1 µM
[22] = second compound 1 µM, first compound 3.16 µM
[23] = second compound 1 µM, first compound 10 µM
[24] = second compound 3.16 µM, first compound 0.0316 µM
[25] = second compound 3.16 µM, first compound 0.1 µM
[26] = second compound 3.16 µM, first compound 0.316 µM
[27] = second compound 3.16 µM, first compound 1 µM
[28] = second compound 3.16 µM, first compound 3.16 µM
[29] = second compound 3.16 µM, first compound 10 µM
[30] = second compound 10 µM, first compound 0.0316 µM
[31] = second compound 10 µM, first compound 0.1 µM
[32] = second compound 10 µM, first compound 0.316 µM
[33] = second compound 10 µM, first compound 1 µM
[34] = second compound 10 µM, first compound 3.16 µM
[35] = curve of first compound, second compound 0.0316 µM
[36] = second compound 0.0316 µM, first compound 0.0316 µM
[37] = second compound 0.0316 µM, first compound 0.1 µM
[38] = second compound 0.0316 µM, first compound 0.316 µM
[39] = second compound 0.0316 µM, first compound 1 µM
[40] = second compound 0.0316 µM, first compound 3.16 µM
[41] = second compound 0.0316 µM, first compound 10 µM
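Further: spheroids exposed to agents for seven days before readout.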
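Wherever viability, T/C is given: percent of DMSO vehicle control viability.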

SMILES	IC50 [1] [nM]	IC50 [2] [nM]	IC50 [3] [nM]	IC50 [4] [nM]	viability, T/C [6] [%]	viability, T/C [7] [%]	viability, T/C [8] [%]	viability, T/C [9] [%]	viability, T/C [10] [%]	viability, T/C [12] [%]	viability, T/C [13] [%]	viability, T/C [14] [%]	viability, T/C [15] [%]	viability, T/C [16] [%]	viability, T/C [18] [%]	viability, T/C [19] [%]	viability, T/C [20] [%]	viability, T/C [21] [%]	viability, T/C [22] [%]	viability, T/C [24] [%]	other results
CCNC(=O)CC1N=C(c2ccc(Cl)cc2)c2cc(OC)ccc2-n2c(C)nnc21 (configuration not stated) + C=CC(=O)N1CCN(c2nc(=O)n(-c3c(C)ccnc3C(C)C)c3nc(-c4c(O)cccc4F)c(F)cc23)C(C)C1	> 10000	> 10000	> 10000	> 10000	107	123	112	102	111	115	105	106	93.1	103	107	102	99	108	105	98.2	IC50 [5]: > 10000 nM; viability, T/C [11]: 98.6%; viability, T/C [17]: 78.5%; viability, T/C [23]: 101%; viability, T/C [25]: 106%; viability, T/C [26]: 105%; viability, T/C [27]: 99.9%; viability, T/C [28]: 88.9%; viability, T/C [29]: 81.3%; viability, T/C [30]: 102%; viability, T/C [31]: 105%; viability, T/C [32]: 97.7%; viability, T/C [33]: 102%; viability, T/C [34]: 91.8%; viability, T/C (second compound 10 µM, first compound 10 µM): 81.9%
COc1cc(Nc2ncc3c(n2)-c2ccc(Cl)cc2C(c2c(F)cccc2OC)=NC3)ccc1C(=O)O + C=CC(=O)N1CCN(c2nc(OCC3CCCN3C)nc3c2CCN(c2cccc4cccc(C)c24)C3)CC1CC#N	> 10000	< 31.6	> 10000	< 31.6	76.6	36.6	38.9	40.7	54.2	60.9	35.9	32.6	45.9	50.4	70.1	39.5	36	40.3	60.6	17.1	IC50 [35]: 89.8 nM; viability, T/C [36]: 74.5%; viability, T/C [37]: 42.8%; viability, T/C [38]: 39%; viability, T/C [39]: 48.5%; viability, T/C [40]: 50%; viability, T/C [41]: 57%; viability, T/C [11]: 64.4%; viability, T/C [17]: 55.1%; viability, T/C [23]: 58.4%; viability, T/C [25]: 8.06%; viability, T/C [26]: 5.83%; viability, T/C [27]: 20.6%; viability, T/C [28]: 25.9%; viability, T/C [29]: 25.9%
CC1COCCN1c1cc(-c2ccnn2C)c2ccnc(-c3ccn[nH]3)c2n1 (configuration not stated) + COc1cc2nc(C)nc(NC(C)c3cc(N)cc(C(F)(F)F)c3)c2cc1OC1CCOC1	> 3160	169	151	99.6	72.8	65.3	47.9	52.5	55.1	83.2	55.2	39.1	37.6	55.6	74.8	56.5	35	40.4	54.5	82.5	IC50 [5]: 96.2 nM; viability, T/C (second compound 0.1 µM, first compound 0.01 µM): 95.2%; viability, T/C (second compound 0.316 µM, first compound 0.01 µM): 88.4%; viability, T/C (second compound 1 µM, first compound 0.01 µM): 92.5%; viability, T/C (second compound 3.16 µM, first compound 0.01 µM): 80.6%; viability, T/C [25]: 49.9%; viability, T/C [26]: 37.2%; viability, T/C [27]: 39%; viability, T/C [28]: 49.2%; viability, T/C (second compound 10 µM, first compound 0.01 µM): 75.7%; viability, T/C [30]: 74.6%; viability, T/C [31]: 49.2%; viability, T/C [32]: 31.8%; viability, T/C [33]: 41%; viability, T/C [34]: 42.4%
CC(C)NCC(C(=O)N1CCN(c2ncnc3c2C(C)CC3O)CC1)c1ccc(Cl)cc1 (configuration not stated) + C=CC(=O)N1CCN(c2nc(OCC3CCCN3C)nc3c2CCN(c2cccc4cccc(C)c24)C3)CC1CC#N	> 10000	> 10000	> 10000	< 31.6	101	98.8	105	91	94.5	84	94.2	92.8	84.9	77.8	85.6	101	95.1	90.3	93.6	2.67	IC50 [35]: > 10000 nM; viability, T/C [36]: 104%; viability, T/C [37]: 105%; viability, T/C [38]: 99.7%; viability, T/C [39]: 94.7%; viability, T/C [40]: 96.3%; viability, T/C [41]: 92.7%; viability, T/C [11]: 100%; viability, T/C [17]: 85.2%; viability, T/C [23]: 88.7%; viability, T/C [25]: 11.2%; viability, T/C [26]: 14.7%; viability, T/C [27]: 12.3%; viability, T/C [28]: 4.04%; viability, T/C [29]: 0.49%
CC(=O)Nc1cccc(-n2c(=O)n(C3CC3)c(=O)c3c(Nc4ccc(I)cc4F)n(C)c(=O)c(C)c32)c1																					viability, T/C (compound 0.0001 µM): 94.1% [middle of 5 runs]; viability, T/C (compound 0.000316 µM): 84.7% [middle of 5 runs]; viability, T/C (compound 0.001 µM): 56.3% [middle of 5 runs]; viability, T/C (compound 0.00316 µM): 27.5% [middle of 5 runs]; viability, T/C (compound 0.01 µM): 15.5% [middle of 5 runs]; viability, T/C (compound 0.0316 µM): 6.86% [middle of 5 runs]; IC50 (curve of compound): 1.3 nM [middle of 5 runs]

Reference: PubChem BioAssay AID1963874 (Molecular Pharmacology Branch, DTP, NCI, 2024)
